molecular target: Syk (Homo sapiens, UniProt P43405); assay: High Throughput Syk Biochemical Assay (KinEASE TR-FRET); details: TABLE D, 20 μM ATP, 1 μM biotinylated peptide, 0.015 nM Syk, 30 min at room temperature, read-out: IC50
Outline: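 Compounds in DMSO dilution series were tested against Syk, which phosphorylates an XL665-tagged peptide. The phosphoproduct was bound by Eu-labelled phosphotyrosine antibody in a two-step endpoint format.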

| SMILES | IC50 [nM] |
| --- | --- |
| C[C@@H](Oc1nc(-c2cnn(C(C)(C)C)c2)cc2ncn(C(F)F)c12)[C@H]1CNC(=O)C12CC2 [(R)-7-((R)-1-((6-(1-(tert-butyl)-1H-pyrazol-4-yl)-3-(difluoromethyl)-3H-imidazo[4,5-c]pyridin-4-yl)oxy)ethyl)-5-azaspiro[2.4]heptan-4-one] | 35.1 |
| Cc1cc(-c2cc3ncn(C)c3c(O[C@H](C)[C@H]3CNC(=O)C3)n2)n[nH]1 [(R)-4-((R)-1-(3-methyl-6-(5-methyl-1H-pyrazol-3-yl)-3H-imidazo[4,5-c]pyridin-4-yloxy)ethyl)pyrrolidin-2-one] | 22.8 |
| CC(C)n1cc(-c2cc(O[C@H](C)[C@H]3CNC(=O)C3)c3scnc3c2)cn1 (stereo in doubt) [(R)-4-((R)-1-((5-(1-isopropyl-1H-pyrazol-4-yl)benzo[d]thiazol-7-yl)oxy)ethyl)pyrrolidin-2-one] | 0.697 |
| C[C@@H](Oc1nc(-c2cnn(C3CCOCC3)c2)cc2ncn(C)c12)[C@H]1CNC(=O)C1 [(R)-4-((R)-1-(3-methyl-6-(1-(tetrahydro-2H-pyran-4-yl)-1H-pyrazol-4-yl)-3H-imidazo[4,5-c]pyridin-4-yloxy)ethyl)pyrrolidin-2-one] | 10.2 |
| COc1ccc(-c2cc3ncn(C(F)F)c3c(O[C@H](C)[C@H]3CNC(=O)C34CC4)n2)cc1OC [(R)-7-((R)-1-((3-(difluoromethyl)-6-(3,4-dimethoxyphenyl)-3H-imidazo[4,5-c]pyridin-4-yl)oxy)ethyl)-5-azaspiro[2.4]heptan-4-one] | 38 |
| COc1ccc(-c2cc3ncn(CC(F)F)c3c(O[C@H](C)[C@H]3CNC(=O)C3)n2)cc1OC [(R)-4-((R)-1-(3-(2,2-difluoroethyl)-6-(3,4-dimethoxyphenyl)-3H-imidazo[4,5-c]pyridin-4-yloxy)ethyl)pyrrolidin-2-one] | 19.5 |
| C[C@@H](Oc1cc(-c2cnn(C3CCC3)c2)cc2ncsc12)[C@H]1CNC(=O)C1 (stereo in doubt) [(R)-4-((R)-1-((5-(1-cyclobutyl-1H-pyrazol-4-yl)benzo[d]thiazol-7-yl)oxy)ethyl)pyrrolidin-2-one] | 0.693 |
| CC(C)n1ccc(-c2cc(O[C@H](C)[C@H]3CNC(=O)C3)c3scnc3c2)n1 (stereo in doubt) [(R)-4-((R)-1-((5-(1-isopropyl-1H-pyrazol-3-yl)benzo[d]thiazol-7-yl)oxy)ethyl)pyrrolidin-2-one] | 2.52 |
| C[C@@H](Oc1cc(-c2ccc(N3CCOCC3)cc2)cc2ncsc12)[C@H]1CNC(=O)C1 (stereo in doubt) [(R)-4-((R)-1-((5-(4-morpholinophenyl)benzo[d]thiazol-7-yl)oxy)ethyl)pyrrolidin-2-one] | 1.82 |
| COc1ccc(-c2cn3ncc(Cl)c3c(O[C@H](C)[C@H]3CNC(=O)C3)n2)cc1OC [(R)-4-((R)-1-((3-chloro-6-(3,4-dimethoxyphenyl)pyrazolo[1,5-a]pyrazin-4-yl)oxy)ethyl)pyrrolidin-2-one] | 0.321 |
| C[C@@H](Oc1nc(-c2cnn(CC(F)F)c2)cc2ncn(C)c12)[C@H]1CNC(=O)C1 [(R)-4-((R)-1-(6-(1-(2,2-difluoroethyl)-1H-pyrazol-4-yl)-3-methyl-3H-imidazo[4,5-c]pyridin-4-yloxy)ethyl)pyrrolidin-2-one] | 17.7 |
| C[C@@H](Oc1nc(-c2cnn3ccccc23)cc2ncn(C)c12)[C@H]1CNC(=O)C1 [(R)-4-((R)-1-(3-methyl-6-(pyrazolo[1,5-a]pyridin-3-yl)-3H-imidazo[4,5-c]pyridin-4-yloxy)ethyl)pyrrolidin-2-one] | 12.7 |
| C[C@@H](Oc1nc(-c2csc(C(C)(C)C)n2)cc2ncn(C)c12)[C@H]1CNC(=O)C1 [(R)-4-((R)-1-(6-(2-tert-butylthiazol-4-yl)-3-methyl-3H-imidazo[4,5-c]pyridin-4-yloxy)ethyl)pyrrolidin-2-one] | 19.3 |
| COc1ccc(-c2cc3ncn(C)c3c(O[C@H](C)[C@H]3CNC(=O)C3)n2)cc1F [(R)-4-((R)-1-(6-(3-fluoro-4-methoxyphenyl)-3-methyl-3H-imidazo[4,5-c]pyridin-4-yloxy)ethyl)pyrrolidin-2-one] | 17.2 |

same assay, conditions: table 'ALL NEW COMPOUNDS IN 2014', 20 μM ATP, 1 μM biotinylated peptide, 0.015 nM Syk, 30 min at room temperature, read-out: Syk IC50

| SMILES | IC50 [nM] |
| --- | --- |
| C[C@@H](Oc1cc(-c2ccc(N3CCN(C4COC4)CC3)nn2)cc2ncn(C3CC3)c12)[C@H]1CNC(=O)C1 [(R)-4-((R)-1-((1-cyclopropyl-5-(6-(4-(oxetan-3-yl)piperazin-1-yl)pyridazin-3-yl)-1H-benzo[d]imidazol-7-yl)oxy)ethyl)pyrrolidin-2-one] | 11.6 |
| Cc1ccc(-c2cc3ncn(C4CC4)c3c(O[C@H](C)[C@H]3CNC(=O)C3)n2)s1 [(R)-4-((R)-1-((3-cyclopropyl-6-(5-methylthiophen-2-yl)-3H-imidazo[4,5-c]pyridin-4-yl)oxy)ethyl)pyrrolidin-2-one] | 7.43 |
| C[C@@H](Oc1cc(-c2ccc3c(c2)NCCN3C)cc2ncn(C3CC3)c12)[C@H]1CNC(=O)C1 [(R)-4-((R)-1-((1-cyclopropyl-5-(1-methyl-1,2,3,4-tetrahydroquinoxalin-6-yl)-1H-benzo[d]imidazol-7-yl)oxy)ethyl)pyrrolidin-2-one] | 3.83 |
| C[C@@H](Oc1cc(-c2ccc(N3CCC(C4COC4)CC3)cn2)cc2ncn(C3CC3)c12)[C@H]1CNC(=O)C1 [(R)-4-((R)-1-((1-cyclopropyl-5-(5-(4-(oxetan-3-yl)piperidin-1-yl)pyridin-2-yl)-1H-benzo[d]imidazol-7-yl)oxy)ethyl)pyrrolidin-2-one] | 4.65 |
| C[C@@H](Oc1cc(-c2ccc(N3CCC(N4CCOCC4)CC3)cn2)cc2ncn(C3CC3)c12)[C@H]1CNC(=O)C1 [(R)-4-((R)-1-((1-cyclopropyl-5-(5-(4-morpholinopiperidin-1-yl)pyridin-2-yl)-1H-benzo[d]imidazol-7-yl)oxy)ethyl)pyrrolidin-2-one] | 6.85 |
| C[C@@H](Oc1nc(-c2ccc(N3CCN(C4COC4)CC3)nc2)cc2ncn(C)c12)[C@H]1CNC(=O)C1 [(R)-4-((R)-1-((3-methyl-6-(6-(4-(oxetan-3-yl)piperazin-1-yl)pyridin-3-yl)-3H-imidazo[4,5-c]pyridin-4-yl)oxy)ethyl)pyrrolidin-2-one] | 12.4 |
| COc1cc(-c2cc3ncn(C4CC4)c3c(O[C@H](C)[C@H]3CNC(=O)C3)n2)cnc1OC [(R)-4-((R)-1-((3-cyclopropyl-6-(5,6-dimethoxypyridin-3-yl)-3H-imidazo[4,5-c]pyridin-4-yl)oxy)ethyl)pyrrolidin-2-one] | 8.38 |
| Cc1ncc(-c2cc3ncn(C4CC4)c3c(O[C@H](C)[C@H]3CNC(=O)C3)n2)s1 [(R)-4-((R)-1-((3-cyclopropyl-6-(2-methylthiazol-5-yl)-3H-imidazo[4,5-c]pyridin-4-yl)oxy)ethyl)pyrrolidin-2-one] | 10.2 |
| C[C@@H](Oc1nc(-c2ccc3c(C4CC4)n[nH]c3c2)cc2ncn(C3CC3)c12)[C@H]1CNC(=O)C1 | 6.12 |
| Cc1nc(-c2cc(O[C@H](C)[C@H]3CNC(=O)C3)c3c(c2)ncn3C2CC2)cn1C [(R)-4-((R)-1-((1-cyclopropyl-5-(1,2-dimethyl-1H-imidazol-4-yl)-1H-benzo[d]imidazol-7-yl)oxy)ethyl)pyrrolidin-2-one] | 6.07 |
| C[C@@H](Oc1nc(-c2ccc3c(c2)OCCO3)cc2ncn(C3CC3)c12)[C@H]1CNC(=O)C1 [(R)-4-((R)-1-((3-cyclopropyl-6-(2,3-dihydrobenzo[b][1,4]dioxin-6-yl)-3H-imidazo[4,5-c]pyridin-4-yl)oxy)ethyl)pyrrolidin-2-one] | 5.52 |
| C[C@@H](Oc1nc(-c2cnn(C(C)(C)CO)c2)cc2ncn(C3CC3)c12)[C@H]1CNC(=O)C1 | 3.43 |

Reference: patent publication US10005774B2, “Syk inhibitors” (Gilead Sciences, Inc., priority 2013, dated 2018)
